Measurements taken from a melting point compilation (Tetko et al.; mined from patent text by program, amines drawn as free bases though some values may be those of a salt).

Row | SMILES | melting point
1 | O=C(c1ccc2nonc2c1)N1CC2CC1C(Cl)C2Cl (configuration not stated) | 156 to 157 °C
2 | COc1c(-c2nnc(Cc3ccc(F)cc3)o2)n(C)c2ccccc2c1=O | 156 to 157 °C
3 | CC(=O)OCc1cnc2c(NC(=O)c3c(Cl)cccc3Cl)cccc2c1 | 199 to 201 °C
4 | CC(Oc1ncn(-c2cccc(C(F)(F)F)c2)n1)C(N)=O (configuration not stated) | 147 to 149 °C
5 | CCC(=O)NC[C@@H]1C[C@H]1c1c(F)ccc2nn(C)cc12 (relative stereo) | 158 to 159 °C
6 | O=C1c2cccc(Cl)c2C(O)N1c1ccc2ccc(Cl)nc2n1 (configuration not stated) | 270 °C
7 | O=C(O)c1ccccc1-c1ccc(-c2ccc(C(F)(F)F)cc2)o1 | 182 to 183 °C
8 | COc1cc(OC)cc(-c2nc(C)nn2-c2ccc(S(N)(=O)=O)cn2)c1 | 195 to 196 °C
9 | ClCCCOc1ccc(-c2nc3ccccc3s2)cc1 | 141 to 143 °C
10 | N#Cc1ccc(/C=C/C(=O)/C=C/c2ccc(C#N)cc2)cc1 | 137 to 138 °C
11 | Cc1ccc(CNCCOc2cccc3[nH]c(=S)[nH]c23)cc1 | > 250 °C
12 | Cc1ccc(C2c3c(C)c(NCc4ccc(F)cc4)c(C)c(C)c3OC2(C)C)cc1 (configuration not stated) | 92 to 94 °C
13 | Cc1ccc2c(c1)CN(C)C(=O)CC2 | 75 to 76 °C
14 | CCOC(=O)COc1ccc([N+](=O)[O-])cc1Cl | 73 to 74 °C
15 | CN(CCCNC(=O)c1c2ccccc2nc2ccccc12)CCCNC(=O)c1c2ccccc2nc2c1[nH]c1ccccc12 | 108 to 110 °C
16 | CC1(C)[C@H](C(=O)O)[C@@H]1C=C1CCSC1=O | 162 °C
17 | CCCCS(=O)(=O)Nc1c(C)c(C)c2c(c1C)C(c1ccc(C(C)C)cc1)CO2 (configuration not stated) | 96 to 97 °C
18 | CC1=C(C)C(=O)N(C2CCC(O)CC2)C1=O (configuration not stated) | 109 to 111 °C
19 | CCCc1c(O)ccc2c1OC(C(=O)OC)CC2 (configuration not stated) | 51 to 53 °C
20 | Cc1ccc(NC(=O)N2CCN(C(=O)c3ccc(Nc4ccnc5cc(C(F)(F)F)ccc45)cc3)CC2)cc1 | 280 to 282 °C
21 | Cc1sc2c(Cl)c(Cl)c(O)cc2c1C | 143 to 144 °C
22 | COCCCc1cc(N(C)Cc2ccc(-c3ccc(C(F)(F)F)cc3)nc2C)ccc1OCC(=O)O | 72 to 73 °C
23 | CCOC(=O)CCc1ccc2c(c1)nc(N)c1nc(CC)n(CC3CCOCC3)c12 | 172 to 173 °C
24 | CCCCCCCCOC(=O)C(CC(C)C)NC(=O)c1cc([N+](=O)[O-])cc([N+](=O)[O-])c1 (configuration not stated) | 71 to 73 °C
25 | CONC(=N)c1nc(Cl)c(-c2c(F)cc(F)cc2F)c(N2CCCO2)n1 | 192 to 193 °C
26 | COc1c(S(N)(=O)=O)cccc1S(=O)(=O)NC(=O)Nc1nc(C)cc(C)n1 | 218 °C

Row | SMILES | melting point
27 | CN(C)[C@H]1CCN(c2c(-c3ccccc3)cc(C#N)c3oc(C(C)(C)C)cc23)C1 | 46 to 48 °C
28 | Cn1cc(C#N)n(-c2ccc(Cl)cc2)c1=O | 149 to 151 °C
29 | COc1ccccc1-c1cc(NC(=O)C2CCNCC2)ncn1 | 279 to 280 °C
30 | COc1ccc2c(c1)CCC1C2CCC2(C)C(NCCCCCCCCCCN)CCC12 (configuration not stated) | 55.5 to 57.5 °C
31 | CC(=O)NCCNC(=O)c1ccc(Br)o1 | 175 to 176 °C
32 | Cc1ccc(C(=O)C2=C(N)CCCC2)cc1 | 130 to 131 °C
33 | O=C1[C@H]2CCC[C@H]2Nc2ccccc2N1Cc1ccc([N+](=O)[O-])cc1 (relative stereo) | 154 to 155 °C
34 | N=C(N)c1cc2cc(F)c(F)cc2o1 | 178 °C
35 | COC(=O)/C=C/c1ccc(C)cc1C#N | 95 to 96 °C
36 | NC(=O)c1nccn1C1Cc2ccc(Cl)cc2C1=O (configuration not stated) | 190 °C
37 | Cn1nnnc1SCCCS(=O)(=O)c1ccccn1 | 98.5 to 101 °C
38 | CC(=O)c1nc(-c2ccc(O)cc2)n(C)c1C | 198 to 202 °C
39 | COC(=O)c1cc(C(=O)c2ncc3ccc(N(C)C(=O)OC(C)(C)C)cn23)ccc1[N+](=O)[O-] | 55 °C
40 | FC(F)(F)c1cccc(Nc2ncnc(NCc3ccco3)n2)c1 | 207 to 209 °C
41 | Cc1nn(C)c(C)c1CNC(=O)c1ccnc(N2CCN(Cc3ccc(F)cc3)C2=O)c1 | 179 to 181 °C
42 | COc1cccc(-n2ccc(=O)c(-c3ccnn3-c3ccccc3)n2)c1 | 110 to 111 °C
43 | Cn1cc(C2=C(c3cccc(NC4COC(C)(C)OC4)c3)C(=O)NC2=O)c2ccccc21 | 201 to 203 °C
44 | Cc1nnc(-c2ccc3ncn(-c4ccc(OC(F)(F)F)cc4)c3c2)o1 | 160 to 161 °C
45 | O=c1nc(C2CC2)c2cc(-c3cccc(Cl)c3)ccc2[nH]1 | 189 to 190 °C
46 | O=C(N[C@H]1CC[C@H](O)CC1)OCc1ccccc1 | 148 to 151 °C
47 | CS(=O)(=O)c1ccc(-c2cnn(-c3ccoc3)c(=O)c2-c2ccc(F)cc2)cc1 | 239 to 242 °C
48 | CC(C)(C)Nc1nccc(C#Cc2ccc(F)cc2)n1 | 97 to 99 °C
49 | CCCCCCCCCC(=O)Nc1cc(NC(=O)CCCCCCCCC)cc(N(CC(=O)OCc2ccccc2)CC(=O)OCc2ccccc2)c1 | 127 to 129 °C
50 | O=C(CCC(=O)N1CCC(c2ccc(Cl)cc2)CC1)c1ccc2c(c1)CNCCC2 | 122 to 124 °C
51 | Cc1oc(C=Cc2cccc(Cl)c2)nc1CCl | 86 to 87 °C
52 | C=C(C=O)c1ccc(C)cc1[N+](=O)[O-] | 58.5 to 60 °C

Row | SMILES | melting point
53 | CCc1c(Cl)c2ccccn2c1C(=O)c1ccc(O)cc1 | 179 °C
54 | Cc1cc(NCCCCCCBr)ccc1O | 144 to 146 °C
55 | CCC1(CC)c2ccccc2-c2ccccc21 | 29 to 30 °C
56 | O=C(O)CCc1cccc2c1C[C@@H](CCCCc1ccccc1)O2 | 110 to 111 °C
57 | O=[N+]([O-])c1cc(-c2ccoc2)ccc1Nc1cccc(-n2ccnc2)n1 | 173 to 174 °C
58 | O=C(O)c1cccc(-c2cc3ccc(Cl)cc3[nH]c2=O)c1 | > 330 °C
59 | CC(C)(C)OC(=O)NCC1C2CN(C(=O)C(O)(c3ccccc3)C3CCCC3)CC12 (configuration not stated) | 76 to 79.6 °C
60 | CCN1CN2C(=N1)C(c1ccccc1Cl)=NCC1=C2S(=O)C(C(=O)NC)C1 (configuration not stated) | 193 to 194 °C
61 | O=C(O)CCc1ccc(O)c(C=Nc2cc(S(=O)(=O)O)ccc2O)c1 | > 275 °C
62 | C=Cc1cc(CNC(=O)C#Cc2ccc(C(C)(C)C)cc2)cc(F)c1NS(C)(=O)=O | 155 to 157 °C
63 | CCc1nc(/C=C\c2cn(-c3ccccc3)nc2OCc2ccc(OCc3nc(-c4cccc(C(=O)OC)c4)oc3C)c(OC)c2)cs1 | 125 to 126 °C
64 | CCCc1nn(C)c2c(=O)[nH]c(-c3cc([N+](=O)[O-])cnc3OC3CCC3)nc12 | 212 to 214 °C
65 | COc1cc(NC(C)=O)c(Cl)cc1C(=O)NN1CCN(Cc2ccccc2)CC1 | 185 °C
66 | CS(=O)(=O)CCCCC(c1c(F)cccc1F)S(=O)(=O)c1ccc(Cl)cc1 (configuration not stated) | 118 to 119 °C
67 | Cc1ccccc1C(=O)Nc1ccc(C(=O)N2CCCC(O)(CO)c3ccccc32)cc1 (configuration not stated) | 136 to 140 °C
68 | O=C(OCc1ccc([N+](=O)[O-])cc1)C(=O)c1ccccc1C(=O)O | 165 to 167 °C
69 | CN1CCN(CCCNc2cc(Oc3ccc4c(C(=O)Nc5cc(C(C)(C)C)nn5-c5ccc(F)cc5)cccc4c3)ncn2)CC1 | 131 to 133 °C
70 | O=C(O)CC(CC(=O)O)C(F)(F)F | 100 °C
71 | FC(F)(F)c1ccc(-c2ccnc(Oc3ccc4cccnc4c3)c2)cc1 | 156 to 158 °C
72 | NC(=O)c1cnn(-c2ccc(F)cc2)c1-c1ccncc1 | 215 to 216 °C
73 | O=c1[nH]c2cc(Cl)ccc2c(O)c1-c1cccc([N+](=O)[O-])c1 | 329 to 332 °C
74 | Cn1cc(C(O)(c2ccc3c(cnn3C(=O)C3CCC3)c2)C(F)(F)F)c2ccccc21 (configuration not stated) | 79 to 81 °C
75 | COC(=O)c1cc(NS(C)(=O)=O)c2cc(Cc3ccc(F)cc3)cnc2c1O | 190 °C
76 | C=C1C(=O)N[C@@H](Cc2ccccc2)C(=O)N1Cc1ccccc1 | 124 to 127 °C
77 | COc1ccc(/C=N/N2C=COC=C2)cc1OC1CCCC1 | 108 to 109 °C
78 | CS(=O)(=O)Nc1ccccc1OC1CCCCC1=O (configuration not stated) | 104 to 106 °C

Row | SMILES | melting point
79 | CCN(CC)CCCNC(=O)Cn1ncc(-c2ccc(NS(C)(=O)=O)cc2)c1-c1ccccc1 | 179 to 180 °C
80 | O=C(O)c1cnc2n(c1=O)CCCC2=NNc1ccccc1 | 267 to 268 °C
81 | CN(C)Cc1ccc(CSCCNc2ncc(N)c(=O)[nH]2)o1 | 127 to 132 °C
82 | Cc1c(-c2ccncc2)[nH]c2c1C(=O)CCC2 | 248 to 249 °C
83 | C[C@@H]1N=C(c2ccccc2)c2cc(N)ccc2N(C)C1=O | 219 to 221 °C
84 | COC(=O)c1ccc(CCC(C=Cc2ccc(O)c(OC)c2)=NO)o1 | 110 to 125 °C
85 | O=[N+]([O-])c1cc(F)ccc1OC1CCC(O)CC1 (configuration not stated) | 151 °C
86 | CC(=O)NC(CSC(=O)C(C)C)C(=O)NCCSC(C)=O (configuration not stated) | 116 to 118 °C
87 | CC(=O)Oc1ccc(C=Cc2ccc3ccccc3n2)cc1 | 127 to 128 °C
88 | CCn1c(=O)ccn(-c2ccc(N3CCN(c4ccc(OC)cc4)CC3)cc2)c1=O | 210 °C
89 | COC(=O)C1=C(O)c2c(c3cc(C)ccc3n2C)S(=O)(=O)N1C | 144 to 145 °C
90 | O=C(O)c1cc2ccccc2nc1C(=O)O | 271 to 277 °C
91 | CN1C2CCC1CN(c1ccc(-c3ccccc3)nn1)C2 | 151 °C
92 | COc1cc(-c2ccccc2)n(-c2ccc(C)cc2)c1-c1ccccc1 | 157 to 158 °C
93 | CCC(C)(C)c1cccc(NC=O)c1Br | 88 to 89 °C
94 | CCSc1nc2c(C)ccnc2n1Cc1ccc(C2(Br)CC(C#N)=CN2C)cc1 (configuration not stated) | 161 to 163 °C
95 | Cn1c(=O)c2c(nc(C=Cc3cccc(N)c3)n2C)n(C)c1=O | 222 to 224 °C
96 | NC(=O)c1ccc(-c2ccnc(C(=O)N(O)Cc3ccccc3)c2)cc1 | 155 to 160 °C
97 | CCOc1ccc2c(c1)C(O)Cc1c(Cl)cccc1S2 (configuration not stated) | 88 to 90 °C
98 | O=C1CN(c2ncc3ncnc(Nc4ccc(F)c(Cl)c4)c3n2)CCN1 | 244 to 246 °C
99 | CC(C)(C(=O)O)C1([N+](=O)[O-])OC2=CC=CC2=CC1c1ccccc1 (configuration not stated) | 256 to 258 °C
100 | COc1cccc(C2CCCCN(Cc3ccccc3)C2=O)c1 (configuration not stated) | 120 to 122 °C
101 | Cc1nc(Cl)ccc1C#N | 104 to 105 °C
102 | N#CC(=NO)c1cccnc1 | 234 to 238 °C
